Test results as given in patent US10752616B2, “Bicycloheteroaryl-heteroaryl-benzoic acid compounds as retinoic acid receptor beta (RARβ) agonists” (King's College London, priority 2014, dated 2020).

Key:
Format in all cases: cell-based
RARα = RARα (Mus musculus (Mouse), UniProt P11416); assay: Transactivation assay for RARα (gal4-RAR fusion, pFR-luc reporter, COS-7 cells), Table 2; conditions: for RARα/RARβ ratio: fold-selectivity for RARβ over RARα, >1 = selective for RARβ
Method: (§1) Transcriptional transactivation assays were performed with gal4 fusion receptor constructs, created using each of the RAR ligand binding domains of either mouse or human, co-transfected with the pFR-luc (Stratagene) reporter construct in COS-7 cells.
(§2) Briefly, on day 1, 96 well plates were seeded with 8000 cells per well then left to recover overnight. On day 2, the cells were co-transfected with 100 ng of reporter plasmid and 10 ng of the appropriate receptor plasmid per well using lipofectamine (Invitrogen). On day 3, the lipofectamine containing media was replaced by a DMEM without phenol red, followed by the addition of test compound dissolved in 1 μL of DMSO to each well's 100 μL total volume. Finally, on day 4, the cells were lysed and their luciferase substrate was provided by the BrightGlo™ reagent (Promega), the plates were then read on the MicroBeta TriLux™ (Perkin Elmer).
(§3) Data for test compounds are quoted as EC50 values. Where replicate data has been generated, the data are quoted as the mean EC50 from the separate experiments.
(§4) EC50's values are reported as mean values of three or more determinations.

RARβ = RARβ (Mus musculus (Mouse), UniProt P22605); assay: Transactivation assay for RARβ (gal4-RAR fusion, pFR-luc reporter, COS-7 cells), Table 2; conditions: COS-7 reporter, mean of three or more determinations, species not stated (method: mouse or human)
Chain of RARβ (P22605 210-444): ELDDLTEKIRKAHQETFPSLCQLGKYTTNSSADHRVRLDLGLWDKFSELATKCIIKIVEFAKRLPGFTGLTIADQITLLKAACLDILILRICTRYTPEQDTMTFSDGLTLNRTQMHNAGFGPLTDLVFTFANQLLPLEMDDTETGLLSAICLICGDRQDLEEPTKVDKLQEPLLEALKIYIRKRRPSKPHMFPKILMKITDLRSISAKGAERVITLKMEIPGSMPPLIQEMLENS
Method: as §1, §2, §3, §4

RARγ = RARγ (Mus musculus (Mouse), UniProt P18911); assay: Transactivation assay for RARγ (gal4-RAR fusion, pFR-luc reporter, COS-7 cells), Table 2; conditions: for RARγ/RARβ ratio: fold-selectivity for RARβ over RARγ, >1 = selective for RARβ
Chain of RARγ (P18911 185-419): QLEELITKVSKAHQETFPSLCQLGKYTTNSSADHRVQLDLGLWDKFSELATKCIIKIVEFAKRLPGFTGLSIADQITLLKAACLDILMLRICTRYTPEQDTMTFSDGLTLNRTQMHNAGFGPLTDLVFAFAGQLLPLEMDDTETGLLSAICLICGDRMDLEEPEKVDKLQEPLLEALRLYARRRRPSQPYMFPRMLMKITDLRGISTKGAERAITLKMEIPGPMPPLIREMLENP
Method: as §1, §2, §3, §4

[1] = Table 2, COS-7 reporter, mean of three or more determinations, inactive = no agonist action at highest concentration tested

Chain of RARα (P11416 183-417): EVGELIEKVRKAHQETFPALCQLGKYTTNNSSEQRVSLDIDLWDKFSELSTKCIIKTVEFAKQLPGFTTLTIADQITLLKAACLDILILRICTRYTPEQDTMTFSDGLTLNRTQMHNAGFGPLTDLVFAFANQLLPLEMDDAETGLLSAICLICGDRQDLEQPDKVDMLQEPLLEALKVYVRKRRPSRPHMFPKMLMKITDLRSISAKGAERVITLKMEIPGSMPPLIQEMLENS

Row | SMILES | EC50 (RARα; [1]) [nM] | RARα/RARβ ratio (RARα) | EC50 (RARβ) [nM] | EC50 (RARγ; [1]) [nM] | RARγ/RARβ ratio (RARγ) | RARα EC50 (RARα; [1]) | RARγ EC50 (RARγ; [1])
1 | Cc1ccc(C)c2oc(-c3nc(-c4ccc(C(=O)O)cc4Br)no3)cc12 [BHBA-003, 3-Bromo-4-(5-(4,7-dimethylbenzofuran-2-yl)-1,2,4-oxadiazol-3-yl)benzoic acid] | 160 | 10 | 16 | 36 | 2 | – | –
2 | Cc1ccc(C)c2oc(-c3nc(-c4ccc(C(=O)O)cc4C(F)(F)F)no3)cc12 [BHBA-004, 4-(5-(4,7-Dimethylbenzofuran-2-yl)-1,2,4-oxadiazol-3-yl)-3-(trifluoromethyl)benzoic acid] | – | – | 10 | – | – | inactive | inactive
3 | Cc1ccc(C)c2oc(-c3nc(-c4ccc(C(=O)O)cc4N)no3)cc12 [BHBA-005, 3-Amino-4-(5-(4,7-dimethylbenzofuran-2-yl)-1,2,4-oxadiazol-3-yl)benzoic acid] | 130 | 5 | 23 | 55 | 2 | – | –
4 | Cc1cc(-c2noc(-c3cc4c(C)ccc(C)c4o3)n2)ccc1C(=O)O [BHBA-006, 2-Methyl-4-(5-(4,7-dimethylbenzofuran-2-yl)-1,2,4-oxadiazol-3-yl)benzoic acid] | 89 | 6 | 14 | 25 | 2 | – | –
5 | Cc1ccc(C)c2oc(-c3nc(-c4ccc(C(=O)O)c(F)c4)no3)cc12 [BHBA-007, 2-Fluoro-4-(5-(4,7-dimethylbenzofuran-2-yl)-1,2,4-oxadiazol-3-yl)benzoic acid] | 16 | – | 2.2 | 8.4 | – | – | –
6 | Cc1ccc(C)c2c(C)c(-c3nc(-c4ccc(C(=O)O)cc4)no3)oc12 [BHBA-008, 4-(5-(3,4,7-Trimethylbenzofuran-2-yl)-1,2,4-oxadiazol-3-yl)benzoic acid] | 17 | – | 1.9 | 6.8 | – | – | –
7 | Cc1ccc(C)c2c(C)c(-c3nc(-c4ccc(C(=O)O)cc4Cl)no3)oc12 [BHBA-009, 3-Chloro-4-(5-(3,4,7-trimethylbenzofuran-2-yl)-1,2,4-oxadiazol-3-yl)benzoic acid] | 32 | 7.6 | 4.2 | 11 | 2.6 | – | –
8 | Cc1ccc(C(C)C)c2cc(-c3nc(-c4ccc(C(=O)O)cc4)no3)oc12 [BHBA-010, 4-(5-(4-Isopropyl-7-methylbenzofuran-2-yl)-1,2,4-oxadazol-3-yl)benzoic acid] | 25 | 8 | 2.9 | 0.53 | 0.18 | – | –
9 | O=C(O)c1ccc(-c2noc(-c3cc4c(Cl)ccc(Cl)c4o3)n2)cc1 [BHBA-011, 4-(5-(4,7-Dichlorobenzofuran-2-yl)-1,2,4-oxadiazol-3-yl)benzoic acid] | 26 | – | 4.3 | 14 | – | – | –
10 | O=C(O)c1ccc(-c2noc(-c3cc4c(Cl)ccc(Cl)c4o3)n2)c(Cl)c1 [BHBA-012, 3-Chloro-4-(5-(4,7-dichlorobenzofuran-2-yl)-1,2,4-oxadiazol-3-yl)benzoic acid] | 67 | 4 | 17 | 17 | 1 | – | –
11 | Cc1cc(-c2noc(-c3cc4c(Cl)ccc(Cl)c4o3)n2)ccc1C(=O)O [BHBA-013, 2-Methyl-4-(5-(4,7-dichlorobenzofuran-2-yl)-1,2,4-oxadiazol-3-yl)benzoic acid] | 140 | – | 16 | 110 | – | – | –
12 | O=C(O)c1ccc(-c2noc(-c3cc4c(Cl)ccc(Cl)c4o3)n2)cc1F [BHBA-014, 2-Fluoro-4-(5-(4,7-dichlorobenzofuran-2-yl)-1,2,4-oxadiazol-3-yl)benzoic acid] | 12 | – | 2 | 11 | – | – | –
13 | Cc1ccc(Cl)c2oc(-c3nc(-c4ccc(C(=O)O)cc4)no3)cc12 [BHBA-015, 4-(5-(7-Chloro-4-methylbenzofuran-2-yl)-1,2,4-oxadiazol-3-yl)benzoic acid] | 23 | – | 2.9 | 12 | – | – | –
14 | Cc1ccc(Cl)c2cc(-c3nc(-c4ccc(C(=O)O)cc4)no3)oc12 [BHBA-016, 4-(5-(4-Chloro-7-methylbenzofuran-2-yl)-1,2,4-oxadiazol-3-yl)benzoic acid] | 18 | 7 | 2.7 | 6 | 2 | – | –
15 | Cc1ccc(Cl)c2oc(-c3nc(-c4ccc(C(=O)O)cc4Cl)no3)cc12 [BHBA-017, 3-Chloro-4-(5-(7-chloro-4-methylbenzofuran-2-yl)-1,2,4-oxadiazol-3-yl)benzoic acid] | 56 | 8 | 7.4 | 18 | 2.4 | – | –
16 | Cc1ccc(Cl)c2cc(-c3nc(-c4ccc(C(=O)O)cc4Cl)no3)oc12 [BHBA-018, 3-Chloro-4-(5-(4-chloro-7-methylbenzofuran-2-yl)-1,2,4-oxadiazol-3-yl)benzoic acid] | 150 | – | 41 | 140 | – | – | –
17 | O=C(O)c1ccc(-c2noc(-c3cc4c(C(F)(F)F)ccc(F)c4o3)n2)cc1 [BHBA-019, 4-(5-(7-Fluoro-4-(trifluoromethyl)benzofuran-2-yl)-1,2,4-oxadiazol-3-yl)benzoic acid] | 19 | 7.6 | 2.5 | 5.3 | 2 | – | –
18 | O=C(O)c1ccc(-c2noc(-c3cc4c(C(F)(F)F)ccc(F)c4o3)n2)c(Cl)c1 [BHBA-020, 3-Chloro-4-(5-(7-fluoro-4-(trifluoromethyl)benzofuran-2-yl)-1,2,4-oxadiazol-3-yl)benzoic acid] | 60 | – | 8 | 23 | – | – | –
19 | Cc1ccc(C)c2sc(-c3nc(-c4ccc(C(=O)O)cc4)no3)cc12 [BHBA-021, 4-(5-(4,7-Dimethylbenzo[b]thiophen-2-yl)-1,2,4-oxadiazol-3-yl)benzoic acid] | 30 | 9 | 3.4 | 6.3 | 2 | – | –
20 | Cc1ccc(C)c2sc(-c3nc(-c4ccc(C(=O)O)cc4Cl)no3)cc12 [BHBA-022, 3-Chloro-4-(5-(4,7-dimethylbenzo[b]thiophen-2-yl)-1,2,4-oxadiazol-3-yl)benzoic acid] | 77 | 5 | 16 | 18 | 1.1 | – | –
21 | Cc1ccc(C)c2oc(-c3nc(-c4ccc(C(=O)O)cc4)no3)nc12 [BHBA-023, 4-(5-(4,7-Dimethylbenzo[d]oxazol-2-yl)-1,2,4-oxadiazol-3-yl)benzoic acid] | – | – | – | 83 | – | – | –
22 | Cc1ccc(C)c2oc(-c3nc(-c4ccc(C(=O)O)cc4Cl)no3)nc12 [BHBA-024, 3-Chloro-4-(5-(4,7-dimethylbenzo[d]oxazol-2-yl)-1,2,4-oxadiazol-3-yl)benzoic acid] | 180 | 7.5 | 24 | 47 | 2 | – | –
23 | Cc1cc(-c2noc(-c3nc4c(C)ccc(C)c4o3)n2)ccc1C(=O)O [BHBA-025, 4-(5-(4,7-Dimethylbenzo[d]oxazol-2-yl)-1,2,4-oxadiazol-3-yl)-2-methylbenzoic acid] | 150 | – | 41 | 140 | – | – | –
24 | Cc1ccc(C)c2oc(-c3nc(-c4ccc(C(=O)O)c(F)c4)no3)nc12 [BHBA-026, 4-(5-(4,7-Dimethylbenzo[d]oxazol-2-yl)-1,2,4-oxadiazol-3-yl)-2-fluorobenzoic acid] | 47 | – | 13 | 77 | – | – | –
25 | Cc1ccc(C)c2sc(-c3nc(-c4ccc(C(=O)O)cc4)no3)nc12 [BHBA-027, 4-(5-(4,7-Dimethylbenzo[d]thiazol-2-yl)-1,2,4-oxadiazol-3-yl)benzoic acid] | 61 | 6.7 | 9 | 25 | 2.7 | – | –
26 | Cc1ccc(C)c2oc(-c3noc(-c4ccc(C(=O)O)cc4)n3)cc12 [BHBA-028, 4-(3-(4,7-Dimethylbenzofuran-2-yl)-1,2,4-oxadiazol-5-yl)benzoic acid] | 26 | 3 | 8.2 | 8.3 | 1 | – | –
27 | Cc1cc(C(=O)O)ccc1-c1nc(-c2cc3c(C)ccc(C)c3o2)no1 [BHBA-029, 4-(3-(4,7-Dimethylbenzofuran-2-yl)-1,2,4-oxadiazol-5-yl)-3-methylbenzoic acid] | 210 | 15 | 14 | 19 | 1.3 | – | –
28 | Cc1ccc(C)c2oc(-c3noc(-c4ccc(C(=O)O)cc4F)n3)cc12 [BHBA-030, 4-(3-(4,7-Dimethylbenzofuran-2-yl)-1,2,4-oxadiazol-5-yl)-3-fluorobenzoic acid] | 58 | 5.8 | 10 | 18 | 1.8 | – | –
